± gives the standard deviation of the averaged measurements.
Columns and labels:
[1] = compound: C[C@@H](Oc1cc(-c2cnn(C3CCNCC3)c2)cnc1N)c1c(Cl)ccc(F)c1Cl; test: surviving fraction relative to DMSO-only wells; higher = less growth inhibition; conditions: exposure time: 5 days
Method in brief: (§1)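 In 384-well plates, 250–500 log-phase tumour cells per well were given 24 hours before five days of continuous exposure to inhibitors at 0.5, 1, 5, 10, 50, 100, 500 and 1000 nM. Surviving fraction is luminescence from CellTiter-Glo, normalised to the median of wells containing DMSO alone. Reading took place after 10 minutes at room temperature.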

SORAFENIB = compound: CNC(=O)c1cc(Oc2ccc(NC(=O)Nc3ccc(Cl)c(C(F)(F)F)c3)cc2)ccn1 [SORAFENIB]; test: as above; conditions: exposure time: 5 days
Method in brief: as §1

Test System | surviving fraction ([1]; 0.5 nM) | surviving fraction ([1]; 5 nM) | surviving fraction ([1]; 10 nM) | surviving fraction ([1]; 50 nM) | surviving fraction ([1]; 100 nM) | surviving fraction ([1]; 500 nM) | surviving fraction ([1]; 1000 nM) | surviving fraction (SORAFENIB; 0.5 nM) | surviving fraction (SORAFENIB; 1 nM) | surviving fraction (SORAFENIB; 5 nM) | surviving fraction (SORAFENIB; 10 nM) | surviving fraction (SORAFENIB; 50 nM) | surviving fraction (SORAFENIB; 100 nM) | surviving fraction (SORAFENIB; 500 nM) | surviving fraction ([1]; 1 nM) | surviving fraction (SORAFENIB; 1000 nM)
HELA CERVIX | 0.969 ± 0.02 | 0.948 ± 0.018 | 0.895 ± 0.072 | 1.02 ± 0.027 | 1.06 ± 0.055 | 0.811 ± 0.05 | 0.258 ± 0.015 | 1.03 ± 0.022 | 0.982 ± 0.024 | 0.986 ± 0.047 | 0.9492 ± 0.0068 | 1.1 ± 0.024 | 1.09 ± 0.062 | 1.07 ± 0.055 |  | 
HOS BONE | 0.934 ± 0.018 | 0.966 ± 0.03 |  | 1.008 ± 0.0042 | 0.997 ± 0.038 | 0.571 ± 0.029 | 0.499 ± 0.023 | 1.03 ± 0.043 | 1.015 ± 0.0025 | 1.025 ± 0.0095 | 1.03 ± 0.018 | 1.09 ± 0.014 |  |  | 0.938 ± 0.019 | 
HOSMNG BONE | 0.985 ± 0.018 | 0.949 ± 0.016 | 0.949 ± 0.039 | 0.637 ± 0.066 | 0.518 ± 0.016 | 0.262 ± 0.013 | 0.17 ± 0.0051 | 0.994 ± 0.086 | 0.975 ± 0.14 | 0.943 ± 0.092 | 1 ± 0.14 | 1.06 ± 0.11 | 1.05 ± 0.16 | 1.1 ± 0.049 | 1 ± 0.02 | 1.06 ± 0.15
HSSYII SYNOVIAL | 0.85 ± 0.056 | 0.81 ± 0.03 | 0.861 ± 0.036 | 0.848 ± 0.021 | 0.794 ± 0.035 | 0.261 ± 0.0051 | 0.122 ± 0.01 | 1 ± 0.059 | 0.975 ± 0.026 | 0.977 ± 0.038 | 0.942 ± 0.035 | 0.947 ± 0.037 | 1.01 ± 0.024 | 0.855 ± 0.035 | 0.882 ± 0.039 | 0.779 ± 0.038
HT1080 SOFT TISSUE | 1 ± 0.018 | 1.02 ± 0.011 | 0.991 ± 0.059 |  |  | 0.953 ± 0.036 | 0.638 ± 0.047 | 1.04 ± 0.057 | 1.05 ± 0.036 | 1.04 ± 0.035 | 1.02 ± 0.014 | 1.023 ± 0.005 | 1.01 ± 0.028 | 1.05 ± 0.09 |  | 1.01 ± 0.031
HU09 BONE |  |  | 0.95 ± 0.07 |  | 0.841 ± 0.014 | 0.388 ± 0.053 | 0.197 ± 0.018 | 0.95 ± 0.061 | 0.951 ± 0.089 | 1.01 ± 0.099 | 0.95 ± 0.072 | 0.809 ± 0.061 | 0.675 ± 0.063 | 0.512 ± 0.016 | 0.889 ± 0.033 | 0.433 ± 0.02
HUO3N1 BONE |  | 0.971 ± 0.034 |  | 0.974 ± 0.02 | 0.954 ± 0.029 | 0.842 ± 0.019 | 0.695 ± 0.031 | 1 ± 0.053 |  |  | 1 ± 0.036 | 1.004 ± 0.01 | 0.941 ± 0.04 | 0.818 ± 0.029 |  | 0.82 ± 0.017
JIMT1 BREAST | 0.869 ± 0.035 | 0.893 ± 0.04 | 0.862 ± 0.033 | 0.971 ± 0.045 | 0.959 ± 0.038 | 0.634 ± 0.075 | 0.517 ± 0.042 |  | 0.986 ± 0.028 | 1.02 ± 0.022 | 0.97 ± 0.014 |  | 1.05 ± 0.046 |  | 0.834 ± 0.024 | 0.986 ± 0.071
JURKAT HAEMATOPOIETIC AND LYMPHOID TISSUE | 0.993 ± 0.024 |  | 0.98 ± 0.013 | 0.984 ± 0.021 | 0.943 ± 0.019 | 0.235 ± 0.013 | 0.195 ± 0.013 | 1.106 ± 0.0035 | 1.1 ± 0.026 | 1.11 ± 0.039 | 1.11 ± 0.037 | 1.08 ± 0.023 | 1.06 ± 0.029 |  | 0.993 ± 0.029 | 0.863 ± 0.012
KPD BONE | 0.886 ± 0.043 | 0.974 ± 0.039 |  | 0.987 ± 0.083 |  | 0.518 ± 0.011 | 0.156 ± 0.012 | 0.922 ± 0.019 |  | 1.03 ± 0.032 |  | 0.989 ± 0.075 |  |  | 0.87 ± 0.013 | 
LM7 BONE | 0.745 ± 0.03 | 0.779 ± 0.026 | 0.782 ± 0.075 |  | 0.859 ± 0.081 | 0.366 ± 0.031 | 0.168 ± 0.0087 | 0.938 ± 0.057 | 0.97 ± 0.048 |  | 1.01 ± 0.066 | 1.11 ± 0.14 | 1.04 ± 0.054 |  | 0.765 ± 0.027 | 1.05 ± 0.033
LNCAP PROSTATE | 1.07 ± 0.056 | 1.15 ± 0.034 | 1.13 ± 0.12 | 1 ± 0.045 | 0.801 ± 0.17 | 0.528 ± 0.075 | 0.464 ± 0.031 | 1.01 ± 0.084 |  | 1 ± 0.082 | 1.06 ± 0.08 | 0.902 ± 0.23 |  | 0.887 ± 0.12 | 1.16 ± 0.13 | 0.853 ± 0.17
MCF7 BREAST | 0.826 ± 0.063 | 0.827 ± 0.046 | 0.802 ± 0.03 | 0.89 ± 0.021 | 0.834 ± 0.034 | 0.755 ± 0.011 | 0.511 ± 0.017 | 0.866 ± 0.025 | 0.86 ± 0.068 | 0.904 ± 0.021 | 0.851 ± 0.022 | 0.928 ± 0.047 | 0.939 ± 0.034 | 0.995 ± 0.074 | 0.818 ± 0.027 | 0.873 ± 0.025
MDAMB134 BREAST | 0.712 ± 0.097 | 0.624 ± 0.11 | 0.667 ± 0.0014 | 0.854 ± 0.029 | 0.767 ± 0.038 | 0.758 ± 0.097 | 0.709 ± 0.1 | 1.04 ± 0.067 | 1.26 ± 0.12 | 1.06 ± 0.033 | 1.02 ± 0.031 | 1.06 ± 0.053 | 1.14 ± 0.091 | 1.21 ± 0.18 | 0.718 ± 0.13 | 
MDAMB157 BREAST |  | 0.967 ± 0.042 | 0.95 ± 0.029 | 0.877 ± 0.038 | 0.836 ± 0.097 | 0.451 ± 0.017 | 0.569 ± 0.071 | 0.962 ± 0.016 | 0.909 ± 0.064 | 0.984 ± 0.03 | 0.923 ± 0.046 |  | 1.01 ± 0.059 | 0.963 ± 0.036 | 0.818 ± 0.016 | 
MDAMB231 BREAST |  | 0.957 ± 0.022 | 0.939 ± 0.025 | 0.955 ± 0.013 | 0.8698 ± 0.0057 | 0.437 ± 0.014 | 0.303 ± 0.012 | 0.99 ± 0.025 | 0.995 ± 0.014 | 0.924 ± 0.036 | 0.905 ± 0.014 | 0.887 ± 0.014 | 0.936 ± 0.05 |  | 0.939 ± 0.017 | 0.929 ± 0.016
MDAMB361 BREAST | 0.779 ± 0.017 | 0.807 ± 0.043 |  |  | 0.858 ± 0.026 | 1.04 ± 0.053 | 1.02 ± 0.047 | 0.813 ± 0.078 | 0.862 ± 0.089 | 0.904 ± 0.029 |  | 0.909 ± 0.034 | 0.837 ± 0.03 | 0.796 ± 0.049 | 0.768 ± 0.029 | 0.84 ± 0.098
MDAMB436 BREAST | 0.833 ± 0.046 | 0.844 ± 0.057 | 0.822 ± 0.046 | 0.996 ± 0.014 | 0.962 ± 0.067 | 0.872 ± 0.036 | 0.736 ± 0.027 | 0.966 ± 0.04 | 0.992 ± 0.046 | 0.977 ± 0.057 | 0.949 ± 0.085 |  | 0.961 ± 0.043 |  | 0.828 ± 0.06 | 0.855 ± 0.019
MDAMB453 BREAST | 0.994 ± 0.054 | 1.02 ± 0.074 | 1.03 ± 0.026 | 1.06 ± 0.014 | 1.06 ± 0.05 | 0.771 ± 0.029 | 0.637 ± 0.013 | 1.08 ± 0.064 |  | 1.11 ± 0.074 | 1.09 ± 0.011 | 1.12 ± 0.056 | 1.12 ± 0.091 |  |  | 1.04 ± 0.047
MDAMB468 BREAST | 0.845 ± 0.076 |  | 0.9157 ± 0.004 | 0.972 ± 0.066 | 1.05 ± 0.041 | 0.551 ± 0.081 | 0.234 ± 0.019 | 1 ± 0.083 |  | 1.15 ± 0.062 | 1.09 ± 0.072 | 1.28 ± 0.073 | 1.26 ± 0.12 | 1.23 ± 0.029 |  | 1.21 ± 0.051
MFM223 BREAST | 0.7 ± 0.052 |  | 0.751 ± 0.042 | 1.05 ± 0.14 | 0.934 ± 0.019 | 0.985 ± 0.064 | 0.836 ± 0.096 | 1.18 ± 0.021 | 1.16 ± 0.048 | 1.23 ± 0.08 | 1.15 ± 0.047 | 1.23 ± 0.13 | 1.14 ± 0.081 | 1.06 ± 0.13 | 0.747 ± 0.044 | 0.742 ± 0.08
MG63 BONE | 0.898 ± 0.011 |  |  | 0.91 ± 0.029 | 0.827 ± 0.023 | 0.711 ± 0.02 | 0.607 ± 0.004 | 0.996 ± 0.025 | 1 ± 0.018 | 1.044 ± 0.01 | 1.015 ± 0.0067 | 1.13 ± 0.014 | 1.13 ± 0.031 | 1.1 ± 0.025 | 0.912 ± 0.016 | 1.12 ± 0.012
MHM BONE | 0.982 ± 0.041 | 0.991 ± 0.023 | 0.993 ± 0.023 |  | 0.977 ± 0.011 | 0.905 ± 0.018 | 0.817 ± 0.012 | 0.977 ± 0.025 | 1.01 ± 0.024 |  | 1.06 ± 0.051 | 1.071 ± 0.0061 | 1.08 ± 0.024 | 1.1 ± 0.034 | 0.991 ± 0.02 | 
NCIH441 LUNG | 0.999 ± 0.039 | 0.956 ± 0.045 | 0.998 ± 0.068 | 0.996 ± 0.046 | 0.885 ± 0.026 | 0.885 ± 0.11 | 0.652 ± 0.079 | 1.12 ± 0.014 | 1.07 ± 0.028 | 1.12 ± 0.12 | 0.967 ± 0.042 | 0.992 ± 0.023 | 0.99 ± 0.12 | 0.927 ± 0.04 | 0.982 ± 0.03 | 0.834 ± 0.016
